Read-outs that look alike come from different tables or passages of the source.
Tests used:
[1] = test system: type 2 herpes simplex virus (HSV); test: HSV2 replication in human embryonic lung fibroblasts (virus yield); format: cell-based, HSV type 2; settings: for inhibition at 100 µM: Human alphaherpesvirus 2, Fibroblast, 28 h, read-out: % reduction in virus yield compared with control cultures
Protocol: Stearic and iodinated stearic acids were assayed for their inhibitory effects on the replication of type 2 herpes simplex virus (HSV) in sub-confluent monolayer cultures of human embryonic lung fibroblasts. […] This was accomplished by reacting hydriodic acid with oleic acid in acetic acid at 20°C. Excess iodine was removed at the end of the reaction by the addition of an excess of sodium thiosulphate, and the product fatty acid was extracted into hexane.
Bovine serum albumin conjugates of the fatty acids (prepared according to the method of A.A.Spector and-J.C.Hoak, J.Anal.Biochem. 1969, 32, 297-302) were added to the cell culture medium at various concentrations in the range 25 - 100 micromolar final concentration and at various times before and after (from 0 to 12 hours) infection with partially purified clinical isolates of HSV type 2, at a multiplicity of infection of 0.1 plaque forming units/cell.
28 hours after infection the titre of infectious virus in the culture supernatants was determined by standard infectious centre techniques on fresh human embryonic lung fibroblasts.

[2] = test system: D262B Rat hepatoma; test: tumour cell colony inhibition test (clonogenic assay); format: cell-based
[3] = stearic acid 100 µM, time relative to infection -1 hours
[4] = stearic acid 100 µM, time relative to infection -2 hours
[5] = stearic acid 100 µM, time relative to infection -3 hours
[6] = stearic acid 100 µM, time relative to infection -4 hours
[7] = stearic acid 100 µM, time relative to infection -8 hours
[8] = stearic acid 100 µM, time relative to infection -12 hours

## CCCCCCCCCCCCCCCCCC(=O)O [stearic acid, octadecanoic acid]
[1]; [3]
  inhibition at 100 µM: 30%
  virus yield: 3.04 x 10^-3 / pfu ml^-1
[1]; [4]
  inhibition at 100 µM: 36%
  virus yield: 2.77 x 10^-3 / pfu ml^-1
[1]; [5]
  inhibition at 100 µM: 35%
  virus yield: 2.80 x 10^-3 / pfu ml^-1
[1]; [6]
  inhibition at 100 µM: 20%
  virus yield: 3.45 x 10^-3 / pfu ml^-1
[1]; [7]
  inhibition at 100 µM: 0%
  virus yield: 4.33 x 10^-3 / pfu ml^-1
[1]; [8]
  inhibition at 100 µM: 0%
  virus yield: 4.72 x 10^-3 / pfu ml^-1
[1]; stearic acid 25 µM, time relative to infection 1 hours
  virus yield: 4.11 x 10^-3 / pfu ml^-1
[1]; stearic acid 25 µM, time relative to infection 2 hours
  virus yield: 4.31 x 10^-3 / pfu ml^-1
[1]; stearic acid 25 µM, time relative to infection 3 hours
  virus yield: 3.89 x 10^-3 / pfu ml^-1
[1]; stearic acid 25 µM, time relative to infection 4 hours
  virus yield: 4.26 x 10^-3 / pfu ml^-1
[1]; stearic acid 25 µM, time relative to infection 8 hours
  virus yield: 4.41 x 10^-3 / pfu ml^-1
[1]; stearic acid 25 µM, time relative to infection 12 hours
  virus yield: 4.21 x 10^-3 / pfu ml^-1
[1]; stearic acid 25 µM, time relative to infection -1 hours
  virus yield: 4.06 x 10^-3 / pfu ml^-1
[1]; stearic acid 25 µM, time relative to infection -2 hours
  virus yield: 3.72 x 10^-3 / pfu ml^-1
[1]; stearic acid 25 µM, time relative to infection -3 hours
  virus yield: 4.15 x 10^-3 / pfu ml^-1
[1]; stearic acid 25 µM, time relative to infection -4 hours
  virus yield: 4.25 x 10^-3 / pfu ml^-1
[1]; stearic acid 25 µM, time relative to infection -8 hours
  virus yield: 3.88 x 10^-3 / pfu ml^-1
[1]; stearic acid 25 µM, time relative to infection -12 hours
  virus yield: 4.63 x 10^-3 / pfu ml^-1
[1]; stearic acid 50 µM, time relative to infection 0 hours
  virus yield: 4.00 x 10^-3 / pfu ml^-1
[1]; stearic acid 50 µM, time relative to infection 1 hours
  virus yield: 3.96 x 10^-3 / pfu ml^-1
[1]; stearic acid 50 µM, time relative to infection 2 hours
  virus yield: 4.45 x 10^-3 / pfu ml^-1
[1]; stearic acid 50 µM, time relative to infection 3 hours
  virus yield: 3.88 x 10^-3 / pfu ml^-1
[1]; stearic acid 50 µM, time relative to infection 4 hours
  virus yield: 4.36 x 10^-3 / pfu ml^-1
[1]; stearic acid 50 µM, time relative to infection 8 hours
  virus yield: 4.09 x 10^-3 / pfu ml^-1
[1]; stearic acid 50 µM, time relative to infection 12 hours
  virus yield: 3.92 x 10^-3 / pfu ml^-1
[1]; stearic acid 50 µM, time relative to infection -1 hours
  virus yield: 3.14 x 10^-3 / pfu ml^-1
[1]; stearic acid 50 µM, time relative to infection -2 hours
  virus yield: 3.02 x 10^-3 / pfu ml^-1
[1]; stearic acid 50 µM, time relative to infection -3 hours
  virus yield: 3.15 x 10^-3 / pfu ml^-1
[1]; stearic acid 50 µM, time relative to infection -4 hours
  virus yield: 3.98 x 10^-3 / pfu ml^-1
[1]; stearic acid 50 µM, time relative to infection -8 hours
  virus yield: 4.62 x 10^-3 / pfu ml^-1
[1]; stearic acid 50 µM, time relative to infection -12 hours
  virus yield: 4.75 x 10^-3 / pfu ml^-1
[1]; stearic acid 75 µM, time relative to infection 0 hours
  virus yield: 3.55 x 10^-3 / pfu ml^-1
[1]; stearic acid 75 µM, time relative to infection 1 hours
  virus yield: 4.44 x 10^-3 / pfu ml^-1
[1]; stearic acid 75 µM, time relative to infection 2 hours
  virus yield: 3.92 x 10^-3 / pfu ml^-1
[1]; stearic acid 75 µM, time relative to infection 3 hours
  virus yield: 4.53 x 10^-3 / pfu ml^-1
[1]; stearic acid 75 µM, time relative to infection 4 hours
  virus yield: 4.21 x 10^-3 / pfu ml^-1
[1]; stearic acid 75 µM, time relative to infection 8 hours
  virus yield: 3.87 x 10^-3 / pfu ml^-1
[1]; stearic acid 75 µM, time relative to infection 12 hours
  virus yield: 4.11 x 10^-3 / pfu ml^-1
[1]; stearic acid 75 µM, time relative to infection -1 hours
  virus yield: 2.54 x 10^-3 / pfu ml^-1
[1]; stearic acid 75 µM, time relative to infection -2 hours
  virus yield: 2.69 x 10^-3 / pfu ml^-1
[1]; stearic acid 75 µM, time relative to infection -3 hours
  virus yield: 2.31 x 10^-3 / pfu ml^-1
[1]; stearic acid 75 µM, time relative to infection -4 hours
  virus yield: 2.25 x 10^-3 / pfu ml^-1
[1]; stearic acid 75 µM, time relative to infection -8 hours
  virus yield: 4.18 x 10^-3 / pfu ml^-1
[1]; stearic acid 75 µM, time relative to infection -12 hours
  virus yield: 3.96 x 10^-3 / pfu ml^-1
[1]; stearic acid 100 µM, time relative to infection 0 hours
  virus yield: 3.85 x 10^-3 / pfu ml^-1
[1]; stearic acid 100 µM, time relative to infection 1 hours
  virus yield: 3.71 x 10^-3 / pfu ml^-1
[1]; stearic acid 100 µM, time relative to infection 2 hours
  virus yield: 3.96 x 10^-3 / pfu ml^-1
[1]; stearic acid 100 µM, time relative to infection 3 hours
  virus yield: 3.83 x 10^-3 / pfu ml^-1
[1]; stearic acid 100 µM, time relative to infection 4 hours
  virus yield: 4.52 x 10^-3 / pfu ml^-1
[1]; stearic acid 100 µM, time relative to infection 8 hours
  virus yield: 4.03 x 10^-3 / pfu ml^-1
[1]; stearic acid 100 µM, time relative to infection 12 hours
  virus yield: 4.28 x 10^-3 / pfu ml^-1
[2]; Rattus norvegicus, 120 h, read-out: % colony formation relative to medium control
  activity at 0.01 µg/mL: 109%
[2]; stearic acid 10ng/ml, 5 days, medium control 37.0± 4.0
  Mean no colonies ± SE: 40.3± 1.8

From EP0238198A2, “Method of modifying the lipid structure function and expression of cell membranes and pharmaceutical compositions for use therein” (Habib, Nagy Adly, priority 1986, dated 1987)
